# From patent US20240317777A1, “NOVEL MACROCYCLIC AMINOPYRAZOLE COMPOUNDS AS CDK2 INHIBITORS” (Accutar Biotechnology Inc., priority 2023, published 2024)
# Read-outs that look alike come from different tables or passages of the source.
# Key:
# CDK1-CYCLIN B = CDK1-CYCLIN B (Homo sapiens, UniProt P06493); test: CDK protein kinase inhibition by ADP-Glo assay, CDK1-CYCLIN B; assay type: biochemical; conditions: for IC50: ADP-Glo, 1000 μM ATP, read-out: CDK1-CYCLINB, IC50; for CDK2 Fold selectivity, CDK1: CDK2 versus CDK1
# CDK1-CYCLIN B, sequence (P06493 whole entry): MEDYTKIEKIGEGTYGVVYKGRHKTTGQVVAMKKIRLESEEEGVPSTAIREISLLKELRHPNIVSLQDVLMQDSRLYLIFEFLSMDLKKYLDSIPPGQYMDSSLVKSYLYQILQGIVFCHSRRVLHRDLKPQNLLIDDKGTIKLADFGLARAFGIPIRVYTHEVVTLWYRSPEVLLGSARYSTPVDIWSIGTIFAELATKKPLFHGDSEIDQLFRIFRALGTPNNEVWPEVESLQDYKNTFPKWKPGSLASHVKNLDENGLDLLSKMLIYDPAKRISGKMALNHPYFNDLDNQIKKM
# CDK1-CYCLIN B, sequence (P14635 whole entry partner): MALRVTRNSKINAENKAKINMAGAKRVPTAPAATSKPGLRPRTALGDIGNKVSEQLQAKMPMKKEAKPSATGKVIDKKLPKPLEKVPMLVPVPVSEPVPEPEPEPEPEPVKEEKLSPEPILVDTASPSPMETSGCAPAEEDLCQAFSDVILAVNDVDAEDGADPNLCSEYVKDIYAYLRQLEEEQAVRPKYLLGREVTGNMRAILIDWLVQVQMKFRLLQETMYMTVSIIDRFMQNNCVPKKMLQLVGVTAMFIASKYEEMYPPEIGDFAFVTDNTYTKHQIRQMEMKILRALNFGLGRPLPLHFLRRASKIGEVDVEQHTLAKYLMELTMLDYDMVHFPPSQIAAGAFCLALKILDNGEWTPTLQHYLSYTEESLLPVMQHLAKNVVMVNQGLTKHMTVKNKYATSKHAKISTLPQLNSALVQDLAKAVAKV
# Method: (§1) CDK Protein Kinase Inhibition by ADP-Glo Assay
# (§2) This ADP-Glo assay measures ADP formed from a kinase reaction and indirectly quantifies the phosphorylation of peptide substrates by the CDK/cyclin protein complexes. The typical assays were carried out in Nanosyn by combining kinase/cyclin complexes, substrates, compounds, and cofactors (ATP and Mg2+) in a well of a 384-well microtiter plate (Corning 3824) and incubating at 22° C. (Table 1). At the end of the incubation, the reaction is quenched, and conversion is detected by luminescence using the Promega ADP-Glo™ Kinase Assay kit (catalog #V9102).
# (§3) Final assay buffer mixture contains: • 100 mM HEPES, pH 7.5 • 0.1% BSA • 0.01% Triton X-100 • 1 mM DTT • 5 mM MgCl2 • 10 μM Sodium Orthovanadate • 100 μM Beta-Glycerophosphate • 1000 μM Ultra Pure ATP (provided in the Promega ADP-Glo™ Kinase Assay kit) • 1% DMSO (from compound)
# (§4) Upon completion, 5 μL of the ADP Glo reagent was added to each well and the plate was further incubated at room temperature for 45 minutes. 10 uL of the Kinase Detection Reagent was subsequently added to each well. After 10 minutes of incubation, the plate was read and analyzed on the BioTek Synergy microplate reader using BioTek Gen5 software.
# CDK2-CYCLIN E1 = CDK2-CYCLIN E1 (Homo sapiens, UniProt P24941); test: CDK protein kinase inhibition by ADP-Glo assay, CDK2-CYCLIN E1; assay type: biochemical; conditions: ADP-Glo, 1000 μM ATP, read-out: CDK2-CYCLINE, IC50
# Method: as §1, §2, §3, §4
# CDK4-CYCLIN D1 = CDK4-CYCLIN D1 (Homo sapiens, UniProt P11802); test: CDK protein kinase inhibition by ADP-Glo assay, CDK4-CYCLIN D1; assay type: biochemical; conditions: for IC50: ADP-Glo, 1000 μM ATP, read-out: CDK4-CYCLIND1, IC50; for CDK2 Fold selectivity, CDK4: CDK2 versus CDK4
# CDK4-CYCLIN D1, sequence (P11802 whole entry): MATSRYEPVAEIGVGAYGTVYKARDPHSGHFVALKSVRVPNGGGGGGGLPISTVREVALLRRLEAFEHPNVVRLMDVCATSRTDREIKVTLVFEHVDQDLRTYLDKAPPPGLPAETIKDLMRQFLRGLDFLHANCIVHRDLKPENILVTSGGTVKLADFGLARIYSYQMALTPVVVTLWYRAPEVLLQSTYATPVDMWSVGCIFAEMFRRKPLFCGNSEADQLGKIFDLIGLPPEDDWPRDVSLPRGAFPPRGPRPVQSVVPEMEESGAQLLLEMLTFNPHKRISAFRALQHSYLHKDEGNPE
# CDK4-CYCLIN D1, sequence (P24385 whole entry partner): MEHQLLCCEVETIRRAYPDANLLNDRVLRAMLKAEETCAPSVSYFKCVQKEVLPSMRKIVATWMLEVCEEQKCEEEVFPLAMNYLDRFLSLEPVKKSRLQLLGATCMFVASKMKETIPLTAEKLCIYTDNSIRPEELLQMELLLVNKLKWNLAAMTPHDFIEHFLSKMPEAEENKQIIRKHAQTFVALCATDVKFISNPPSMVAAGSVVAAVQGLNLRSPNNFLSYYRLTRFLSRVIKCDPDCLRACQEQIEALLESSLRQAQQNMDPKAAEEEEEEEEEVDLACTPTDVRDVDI
# Method: as §1, §2, §3, §4
# CDK6-CYCLIN D3 = CDK6-CYCLIN D3 (Homo sapiens, UniProt Q00534); test: CDK protein kinase inhibition by ADP-Glo assay, CDK6-CYCLIN D3; assay type: biochemical; conditions: for IC50: ADP-Glo, 1000 μM ATP, read-out: CDK6-CYCLIND3, IC50; for CDK2 Fold selectivity, CDK6: CDK2 versus CDK6
# CDK6-CYCLIN D3, sequence (Q00534 whole entry): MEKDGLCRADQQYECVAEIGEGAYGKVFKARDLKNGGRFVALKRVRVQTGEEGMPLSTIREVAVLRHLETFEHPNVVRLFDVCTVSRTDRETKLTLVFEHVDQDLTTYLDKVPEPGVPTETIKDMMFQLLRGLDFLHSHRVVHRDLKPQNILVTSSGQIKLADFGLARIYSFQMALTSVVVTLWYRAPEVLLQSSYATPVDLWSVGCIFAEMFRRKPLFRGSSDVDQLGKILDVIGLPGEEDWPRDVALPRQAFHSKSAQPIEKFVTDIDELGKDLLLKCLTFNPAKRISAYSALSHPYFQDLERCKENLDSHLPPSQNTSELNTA
# CDK6-CYCLIN D3, sequence (P30281 whole entry partner): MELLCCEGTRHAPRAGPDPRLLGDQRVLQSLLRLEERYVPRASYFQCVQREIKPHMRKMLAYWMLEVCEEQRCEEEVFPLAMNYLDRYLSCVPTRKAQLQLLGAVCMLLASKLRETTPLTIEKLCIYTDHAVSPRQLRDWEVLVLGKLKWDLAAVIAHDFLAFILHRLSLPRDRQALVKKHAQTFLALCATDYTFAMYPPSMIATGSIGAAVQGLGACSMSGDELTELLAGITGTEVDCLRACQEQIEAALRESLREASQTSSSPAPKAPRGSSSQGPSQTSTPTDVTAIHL
# Method: as §1, §2, §3, §4
# CDK9-CYCLIN T1 = CDK9-CYCLIN T1 (Homo sapiens, UniProt P50750); test: CDK protein kinase inhibition by ADP-Glo assay, CDK9-CYCLIN T1; assay type: biochemical; conditions: for IC50: ADP-Glo, 1000 μM ATP, read-out: CDK9-CYCLINT1, IC50; for CDK2 Fold selectivity, CDK9: CDK2 versus CDK9
# CDK9-CYCLIN T1, sequence (P50750 whole entry): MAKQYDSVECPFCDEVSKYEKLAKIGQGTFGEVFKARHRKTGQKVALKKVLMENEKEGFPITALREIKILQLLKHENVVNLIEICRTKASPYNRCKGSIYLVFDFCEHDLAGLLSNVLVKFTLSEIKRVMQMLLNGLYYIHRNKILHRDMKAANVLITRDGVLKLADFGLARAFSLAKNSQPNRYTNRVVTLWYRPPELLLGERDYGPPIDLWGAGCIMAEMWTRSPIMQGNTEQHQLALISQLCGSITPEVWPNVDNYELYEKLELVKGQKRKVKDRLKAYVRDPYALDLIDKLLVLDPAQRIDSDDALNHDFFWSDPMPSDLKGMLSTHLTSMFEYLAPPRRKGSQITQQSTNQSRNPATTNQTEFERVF
# CDK9-CYCLIN T1, sequence (O60563 whole entry partner): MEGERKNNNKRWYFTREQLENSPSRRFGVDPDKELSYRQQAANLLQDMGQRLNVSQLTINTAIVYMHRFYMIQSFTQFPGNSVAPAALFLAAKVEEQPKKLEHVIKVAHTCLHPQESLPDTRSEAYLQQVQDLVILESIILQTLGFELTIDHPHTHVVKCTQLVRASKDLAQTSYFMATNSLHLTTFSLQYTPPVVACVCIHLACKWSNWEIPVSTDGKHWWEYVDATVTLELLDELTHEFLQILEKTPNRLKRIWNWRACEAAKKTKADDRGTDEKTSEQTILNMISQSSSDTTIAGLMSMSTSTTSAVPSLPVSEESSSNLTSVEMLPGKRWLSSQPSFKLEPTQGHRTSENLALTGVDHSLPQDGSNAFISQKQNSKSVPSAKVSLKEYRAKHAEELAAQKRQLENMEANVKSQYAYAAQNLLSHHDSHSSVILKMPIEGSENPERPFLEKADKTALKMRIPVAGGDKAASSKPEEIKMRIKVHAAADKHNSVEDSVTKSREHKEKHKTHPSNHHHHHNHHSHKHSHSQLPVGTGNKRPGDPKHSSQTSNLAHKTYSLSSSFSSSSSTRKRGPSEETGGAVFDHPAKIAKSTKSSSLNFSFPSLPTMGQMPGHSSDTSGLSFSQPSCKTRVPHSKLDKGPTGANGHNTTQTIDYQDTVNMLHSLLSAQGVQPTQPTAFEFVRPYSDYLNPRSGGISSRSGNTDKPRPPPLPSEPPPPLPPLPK
# Method: as §1, §2, §3, §4
# [1] = tested on: Phospho-Rb (Ser807/811) in OVCAR3 cells; test: Phospho-Rb expression inhibition in OVCAR3 cells quantified by In Cell Western; assay type: cell-based; conditions: Homo sapiens, OVCAR-3, 24 hours, read-out: OVCAR-3 pRb IC50
# How it was run: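 In-cell western: after 24 h compound exposure at 37° C, fixed OVCAR3 cells co-stained for pRb Ser807/811 (800 nm channel) and total Rb (680 nm channel), imaged by LI-COR Odyssey.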
# [2] = tested on: CCNE1-amplified OVCAR3 cells; test: Cell growth inhibition of CCNE1-amplified OVCAR3 cells (CellTiter-Glo); assay type: cell-based; conditions: Homo sapiens, OVCAR-3, 144 h, 6 days
# How it was run: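 Growth read-out was CellTiter-Glo luminescence, taken after 10 min at room temperature at the end of a 6-day compound exposure at 37 °C. Compounds were diluted from DMSO stocks across various concentrations.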
# CCNE1-normal SKOV3 cells = test: Cell growth inhibition of CCNE1-normal SKOV3 cells (CellTiter-Glo); assay type: cell-based; conditions: Homo sapiens, SK-OV-3, 144 h, 6 days
# How it was run: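 Growth was measured by CellTiter-Glo luminescence after 6 days' compound exposure at 37 °C. Cells were plated one day before dosing at 1000 per well in medium with 10% FBS, and compounds were diluted from DMSO stocks.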
Compound,IC50 [1],IC50 [2],IC50 (CCNE1-normal SKOV3 cells),IC50 (CDK1-CYCLIN B; Table 21),"CDK2 Fold selectivity, CDK1 (CDK1-CYCLIN B; Table 22)",IC50 (CDK2-CYCLIN E1; Table 21),IC50 (CDK4-CYCLIN D1; Table 21),"CDK2 Fold selectivity, CDK4 (CDK4-CYCLIN D1; Table 22)",IC50 (CDK6-CYCLIN D3; Table 21),"CDK2 Fold selectivity, CDK6 (CDK6-CYCLIN D3; Table 22)",IC50 (CDK9-CYCLIN T1; Table 21),"CDK2 Fold selectivity, CDK9 (CDK9-CYCLIN T1; Table 22)",further results
"C[C@H]1CC23CC(C2)(C3)NC(=O)O[C@@H]2CC[C@@H](C2)c2cc([nH]n2)Nc2ccnc(c2)O1 [Compound 102, (1^1S,1^3R,6S,Z)-6-methyl-2^1H-5,11-dioxa-3,9-diaza-4(4,2)-pyridina-2(3,5)-pyrazola-8(1,3)-bicyclo[1.1.1]pentana-1(1,3)-cyclopentanacycloundecaphan-10-one]",≤ 2 nM,2 to 10 nM,50 to 250 nM,,,,,,,,,,"IC50 (CDK1-CYCLIN B; Table 17): ≤ 10 nM; CDK2 Fold selectivity, CDK1 (CDK1-CYCLIN B; Table 18): E (E, <20); IC50 (CDK2-CYCLIN E1; Table 17): ≤ 10 nM; IC50 (CDK4-CYCLIN D1; Table 17): 100 to 500 nM; CDK2 Fold selectivity, CDK4 (CDK4-CYCLIN D1; Table 18): C (C, >50 and ≤100); IC50 (CDK6-CYCLIN D3; Table 17): 100 to 500 nM; CDK2 Fold selectivity, CDK6 (CDK6-CYCLIN D3; Table 18): C (C, >50 and ≤100); IC50 (CDK9-CYCLIN T1; Table 17): 10 to 50 nM; CDK2 Fold selectivity, CDK9 (CDK9-CYCLIN T1; Table 18): E (E, <20)"
"C[C@H]1CC[C@H](C)Oc2cncc(c2)Nc2cc(n[nH]2)[C@H]2CC[C@H](C2)OC(=O)N1 [Compound 151, (1^1S,1^3R,6S,9S,Z)-6,9-dimethyl-2^1H-5,12-dioxa-3,10-diaza-4(3,5)-pyridina-2(3,5)-pyrazola-1(1,3)-cyclopentanacyclododecaphan-11-one]",2 to 10 nM,2 to 10 nM,250 to 1250 nM,≤ 10 nM,"E (E, <20)",≤ 10 nM,50 to 100 nM,"D (D, >20 and ≤50)",50 to 100 nM,"D (D, >20 and ≤50)",100 to 500 nM,"D (D, >20 and ≤50)",
"O=C1NCCCO[C@@H](C(F)(F)F)c2cc(ccn2)Nc2cc(n[nH]2)[C@H]2CC[C@H](C2)O1 [Compound 161, (1^1S,1^3R,5R,Z)-5-(trifluoromethyl)-2^1H-6,12-dioxa-3,10-diaza-4(4,2)-pyridina-2(3,5)-pyrazola-1(1,3)-cyclopentanacyclododecaphan-11-one]",≤ 2 nM,≤ 2 nM,50 to 250 nM,≤ 10 nM,"E (E, <20)",≤ 10 nM,10 to 50 nM,"E (E, <20)",10 to 50 nM,"E (E, <20)",10 to 50 nM,"E (E, <20)",
"C[C@@H]1NC(=O)O[C@@H]2CC[C@@H](C2)c2cc([nH]n2)Nc2ccnc(c2)OCCC1(F)F [Compound 181, (1^1S,1^3R,9S,Z)-8,8-difluoro-9-methyl-2^1H-5,12-dioxa-3,10-diaza-4(4,2)-pyridina-2(3,5)-pyrazola-1(1,3)-cyclopentanacyclododecaphan-11-one]",10 to 50 nM,10 to 50 nM,250 to 1250 nM,,,,,,,,,,"IC50 (CDK1-CYCLIN B; Table 29): 100 to 500 nM; CDK2 Fold selectivity, CDK1 (CDK1-CYCLIN B; Table 30): D (D, >20 and ≤50); IC50 (CDK2-CYCLIN E1; Table 29): ≤ 10 nM; IC50 (CDK4-CYCLIN D1; Table 29): > 500 nM; CDK2 Fold selectivity, CDK4 (CDK4-CYCLIN D1; Table 30): C (C, >50 and ≤100); IC50 (CDK6-CYCLIN D3; Table 29): > 500 nM; CDK2 Fold selectivity, CDK6 (CDK6-CYCLIN D3; Table 30): C (C, >50 and ≤100); IC50 (CDK9-CYCLIN T1; Table 29): 100 to 500 nM; CDK2 Fold selectivity, CDK9 (CDK9-CYCLIN T1; Table 30): D (D, >20 and ≤50)"
